Legend:
[1] = Cytotoxicity against HUVEC assessed as cell growth inhibition measured after 72 hrs by MTT assay; format: toxicity, cell-based; details: human, HUVEC cells
[2] = test system: HOS-TE85; assay: Cytotoxicity against human MNNG cells assessed as cell growth inhibition at 1 uM measured after 72 hrs by MTT assay relative to control; format: functional; details: read-out: GI
[3] = Selectivity index, ratio of IC50 for cytotoxicity against HUVEC to IC50 for cytotoxicity against human MNNG cells; format: toxicity, cell-based; details: HUVEC and human MNNG cells, read-out: Ratio IC50
[4] = test system: HOS-TE85; assay: Cytotoxicity against human MNNG cells assessed as cell growth inhibition measured after 72 hrs by MTT assay; format: functional, cell-based; details: HOS-TE85, 72 h
[5] = test system: HOS-TE85; assay: Cytotoxicity against human MNNG cells assessed as cell growth inhibition at 10 uM measured after 72 hrs by MTT assay relative to control; format: functional; details: read-out: GI

Cc1ccc2c(c1)-c1nc(C#N)c(C#N)nc1C2=O
IC50 at 72 h [1]: 3.85 µM
inhibition of growth at 1 µM [2]: 35.4%
selectivity ratio [3]: 2.08
IC50 [4]: 1.85 µM
inhibition of growth at 10 µM [5]: 99.9%

N#Cc1nc2c(nc1C#N)-c1cc(F)c(F)cc1/C2=N\NC1CCCCC1
IC50 at 72 h [1]: 17.2 µM
inhibition of growth at 1 µM [2]: 31.2%
selectivity ratio [3]: 7.73
IC50 [4]: 2.22 µM
inhibition of growth at 10 µM [5]: 90.4%

Reference: ChEMBL document CHEMBL6109124, “Identification of effective anti-osteosarcoma agents via screening of an in-house NQO1-targeted compound library” (Bioorg Med Chem, 2025)
